{
  "source": "paper PMC2932872",
  "about": "(Journal of agricultural and food chemistry, 2010)",
  "key": {"SH-SY5Y cells [1]": {"tested_on": "SH-SY5Y cells", "experiment": "Preliminary uptake of ^14C-MPS and ^14C-MPO in SH-SY5Y cells", "assay_type": "in vitro ADME, human", "settings": "1 μM exposure; for share of total applied radioactivity that entered the cells: at the most"}, "SH-SY5Y cells [2]": {"tested_on": "SH-SY5Y cells", "experiment": "MTT viability assay", "assay_type": "cell-based, human", "settings": "for cytotoxicity (in words): 50 μM, 48 and 72 h"}, "[3]": {"experiment": "Stability of ^14C-MPS and ^14C-MPO in culture media", "assay_type": "physicochemical", "settings": "1 μM; for OP recovered from the media unchanged: 72 h incubation in media, 37 °C"}, "SH-SY5Y cells [4]": {"tested_on": "SH-SY5Y cells", "experiment": "Fate in uptake experiments: OP and degradation products in cell cytosol", "assay_type": "in vitro ADME, human", "settings": "for uptake rate constant / amount of parent OP in the cytosol / total uptake (OP and degradation products): 1 μM exposure; for total uptake (OP and degradation products): 48 h (maximum); for OP associated with the membrane fraction (in words): uptake experiments; for Percentage of MPS in cell cytosol (per 10^6 cells) / Relative ratio of MPS in cell cytosol: 1 μM of OP"}, "[5]": {"experiment": "Fate in uptake experiments: OP and degradation products in culture media", "assay_type": "in vitro ADME", "settings": "cells exposed to 1 μM of OP"}, "[6]": {"settings": "cited from earlier work"}, "[7]": {"molecular_target": "acetylcholinesterase (AChE, EC 3.1.1.7)", "settings": "cited from earlier work"}},
  "note": "pIC50: −log10 of the molar value. Values joined by “and” are separate entries in the source; they are usually repeats but may differ in a detail not shown here. Identical values can stand only once.",
  "data": [
    {"compound": "COP(=O)(OC)Oc1ccc([N+](=O)[O-])cc1", "note": "[MPO, methyl paraoxon]", "values": [
      {"measurement": "share of total applied radioactivity that entered the cells", "setting": "SH-SY5Y cells [1]", "value": "≤ 5", "unit": "%"},
      {"measurement": "maximum level of uptake (total amount of OP inside cells)", "setting": "SH-SY5Y cells [1]; maximum at 48 h", "value": 46, "unit": "nM"},
      {"measurement": "cytotoxicity (in words)", "setting": "SH-SY5Y cells [2]", "value": "Some cytotoxicity"},
      {"measurement": "cytotoxicity", "setting": "SH-SY5Y cells [2]; 100 μM, all time points (24, 48, 72 h)", "value": "at least 60%"},
      {"measurement": "OP recovered from the media unchanged", "setting": "[3]", "value": "more than 50%"},
      {"measurement": "uptake rate constant", "setting": "SH-SY5Y cells [4]", "value": 0.025, "unit": "h⁻¹"},
      {"measurement": "amount of parent OP in the cytosol", "setting": "SH-SY5Y cells [4]; 48 h", "value": 0.37, "unit": "nM/10^6 cells"},
      {"measurement": "total uptake (OP and degradation products)", "setting": "SH-SY5Y cells [4]", "value": 1.76, "unit": "nM/10^6 cells"},
      {"measurement": "OP associated with the membrane fraction (in words)", "setting": "SH-SY5Y cells [4]", "value": "negligible amount"}
    ]},
    {"compound": "COP(=S)(OC)Oc1ccc([N+](=O)[O-])cc1", "note": "[MPS, OO, -dimethyl O-4-nitrophenyl phosphorothioate]", "values": [
      {"measurement": "Relative ratio of MPS in culture media", "setting": "[5]; 24 h", "value": "74.3 ± 1.0"},
      {"measurement": "Relative ratio of MPS in culture media", "setting": "[5]; 48 h", "value": "63.9 ± 0.1"},
      {"measurement": "Relative ratio of MPS in culture media", "setting": "[5]; 72 h", "value": "52.9 ± 0.8"},
      {"measurement": "share of total applied radioactivity that entered the cells", "setting": "SH-SY5Y cells [1]", "value": "≤ 5", "unit": "%"},
      {"measurement": "maximum level of uptake (total amount of OP inside cells)", "setting": "SH-SY5Y cells [1]; maximum at 24 h", "value": 13, "unit": "nM"},
      {"measurement": "cytotoxicity (in words)", "setting": "SH-SY5Y cells [2]", "value": "Some cytotoxicity"},
      {"measurement": "cell viability (in words)", "setting": "SH-SY5Y cells [2]; 100 μM, 24 h", "value": "no significant decrease in viability"},
      {"measurement": "cytotoxicity", "setting": "SH-SY5Y cells [2]; 100 μM, 24 h", "value": "4–5% and 4%"},
      {"measurement": "cytotoxicity", "setting": "SH-SY5Y cells [2]; 100 μM, 48 h", "value": "~ 60% and 60%"},
      {"measurement": "cytotoxicity", "setting": "SH-SY5Y cells [2]; 100 μM, 72 h", "value": 90, "unit": "%"},
      {"measurement": "OP recovered from the media unchanged", "setting": "[3]", "value": "more than 50%"},
      {"measurement": "^14C-MPO formed by oxidation in media", "setting": "[3]; after 4 days in media", "value": "less than 1%"},
      {"measurement": "uptake rate constant", "setting": "SH-SY5Y cells [4]", "value": 0.054, "unit": "h⁻¹"},
      {"measurement": "amount of parent OP in the cytosol", "setting": "SH-SY5Y cells [4]; 48 h", "value": 0.54, "unit": "nM/10^6 cells"},
      {"measurement": "total uptake (OP and degradation products)", "setting": "SH-SY5Y cells [4]", "value": 1.19, "unit": "nM/10^6 cells"},
      {"measurement": "Percentage of MPS in cell cytosol (per 10^6 cells)", "setting": "SH-SY5Y cells [4]; 24 h", "value": "0.036 ± 0.001", "unit": "%"},
      {"measurement": "Relative ratio of MPS in cell cytosol", "setting": "SH-SY5Y cells [4]; 24 h", "value": "45.3 ± 1.5"},
      {"measurement": "Percentage of MPS in cell cytosol (per 10^6 cells)", "setting": "SH-SY5Y cells [4]; 48 h", "value": "0.054 ± 0.006", "unit": "%"},
      {"measurement": "Relative ratio of MPS in cell cytosol", "setting": "SH-SY5Y cells [4]; 48 h, listed as 14C-MPS", "value": "46 and 45.8 ± 2.0"},
      {"measurement": "Percentage of MPS in cell cytosol (per 10^6 cells)", "setting": "SH-SY5Y cells [4]; 72 h", "value": "0.043 ± 0.004", "unit": "%"},
      {"measurement": "Relative ratio of MPS in cell cytosol", "setting": "SH-SY5Y cells [4]; 72 h", "value": "43.5 ± 1.8"},
      {"measurement": "OP associated with the membrane fraction (in words)", "setting": "SH-SY5Y cells [4]", "value": "negligible amount"},
      {"measurement": "Log Po/w", "setting": "[6]", "value": 3.0}
    ]},
    {"compound": "CCOP(=S)(OCC)Oc1ccc([N+](=O)[O-])cc1", "note": "[Parathion]", "values": [
      {"measurement": "IC50 (cholinesterase inhibition)", "setting": "[7]", "value": "10^−4 to 10^−5 M"}
    ]},
    {"compound": "CCOP(=O)(OCC)Oc1ccc([N+](=O)[O-])cc1", "note": "[ethyl paraoxon]", "values": [
      {"measurement": "Log Po/w", "setting": "[6]", "value": 1.6}
    ]},
    {"compound": "CCOP(=O)(OCC)Oc1ccc([N+](=O)[O-])cc1", "note": "[paraoxon]", "values": [
      {"measurement": "pIC50", "setting": "[7]; read-out: IC50 (inhibition of AChE)", "value": 8.00}
    ]}
  ]
}
